In general, ED50 refers to the dose that gives a 50% effect, or the effect in half of the subjects.

The values that follow come from US4302461A, “Antiinflammatory 5-substituted-2,3-diarylthiophenes” (E. I. Du Pont de Nemours and Company, priority 1980, dated 1981).

The first assay relates to Established Adjuvant-Induced Arthritis in Rats. The assay can be described thus: Established Adjuvant-Induced Arthritis in Rats (uninjected left hind paw volume). In kind it is in vivo, Lewis (Wistar) male rats. The following applies: Rattus norvegicus, 168 h; oral gavage once daily for 7 days (days 14-20); estimated by inspection of dose-response regression lines; read-out: ED50 % Decrease From Control Paw Volume.
Turning to `Fc1ccc(-c2cc(SC(F)(F)F)sc2-c2ccc(F)cc2)cc1` [Example 1, 2,3-bis(4-Fluorophenyl)-5-(trifluoromethylthio)thiophene], the ED50 is 3.5 mg/kg.

Consider `O=S(=O)(c1cc(-c2ccc(F)cc2)c(-c2ccc(F)cc2)s1)C(F)(F)F` [Example 2, 2,3-bis(4-Fluorophenyl)-5-(trifluoromethylsulfonyl)thiophene], for which the ED50 is 10 mg/kg.

As for `Fc1ccc(-c2sc(SC(F)(F)F)cc2-c2ccc(Cl)cc2)cc1` [Example 7], the ED50 is 4 mg/kg.

With `Fc1ccc(-c2cc(SC(F)(F)F)sc2-c2ccc(Cl)cc2)cc1` [Example 9], the ED50 is 10 mg/kg.

With `COc1ccc(-c2cc(SC(F)(F)F)sc2-c2ccc(S(C)(=O)=O)cc2)cc1` [Example 21], the ED50 was 9 mg/kg.

`CSc1ccc(-c2sc(SC(F)(F)F)cc2-c2ccc(F)cc2)cc1` [Example 22]: the ED50 is 0.4 mg/kg.

Turning to `CSc1ccc(-c2cc(SC(F)(F)F)sc2-c2ccc(F)cc2)cc1` [Example 24], the ED50 was 0.15 mg/kg.

`CCCCC1C(=O)N(c2ccccc2)N(c2ccccc2)C1=O` [Phenylbutazone, reference compound]: the ED50 is 10 mg/kg.

The same assay, now with this note: Rattus norvegicus, 504 h; Daily Oral Dose 20 mg/kg, once daily for 7 days (days 14-20), paw volume on day 21; read-out: Percent Decrease from Control Paw Volume.
With `FC(F)(F)Sc1cc(-c2ccccc2)c(-c2ccccc2)s1` [Example 5], the inhibition in vivo at 20 mg/kg is 33%.

On to `COc1ccc(-c2cc(SC(F)(F)F)sc2-c2ccc(OC)cc2)cc1` [Example 6], for which the inhibition in vivo at 20 mg/kg was determined as 32%.

Still in this assay, the particulars now being: Rattus norvegicus, 504 h; Daily Oral Dose 27 mg/kg, once daily for 7 days (days 14-20), paw volume on day 21; read-out: Percent Decrease from Control Paw Volume.
`COc1ccc(-c2cc(SC)sc2-c2ccc(OC)cc2)cc1` [Example 3, 2,3-bis(4-Methoxyphenyl)-5-(methylthio)thiophene]: the inhibition in vivo at 27 mg/kg was 43%.

Turning to `COc1ccc(-c2cc(SC(F)(F)C(F)F)sc2-c2ccc(OC)cc2)cc1` [Example 4, 2,3-bis(4-Methoxyphenyl)-5-(1,1,2,2-tetrafluoroethylthio)thiophene], the inhibition in vivo at 27 mg/kg stood at 11%.

With `CSc1cc(-c2ccc(F)cc2)c(-c2ccc(F)cc2)s1` [Example 8], the inhibition in vivo at 27 mg/kg turned out to be 25%.

Consider `Fc1ccc(-c2cc(SC(F)(F)C(F)F)sc2-c2ccc(F)cc2)cc1` [Example 10], for which the inhibition in vivo at 27 mg/kg worked out at 28%.

Consider `COc1ccc(-c2cc(S(=O)(=O)C(F)(F)C(F)F)sc2-c2ccc(OC)cc2)cc1` [Example 11], for which the inhibition in vivo at 27 mg/kg is 23%.

On to `O=S(=O)(c1cc(-c2ccc(F)cc2)c(-c2ccc(F)cc2)s1)C(F)(F)C(F)F` [Example 12], for which the inhibition in vivo at 27 mg/kg came to 34%.

Still in this assay, the particulars now being: Rattus norvegicus, 504 h; Daily Oral Dose 81 mg/kg, once daily for 7 days (days 14-20), paw volume on day 21; read-out: Percent Decrease from Control Paw Volume.
In the case of `CCCCCCSc1cc(-c2ccc(OC)cc2)c(-c2ccc(OC)cc2)s1` [Example 20], the inhibition in vivo at 81 mg/kg amounted to 39%.

The assay is the same for the next values; noted with them: Rattus norvegicus, po, 168 h, read-out: ED50 % Decrease From Control Paw Volume.
On to `CC(=O)Oc1ccccc1C(=O)O` [Aspirin, reference compound], for which the ED50 was found to be 270 mg/kg.

In the case of `COc1ccc2c(c1)c(CC(=O)O)c(C)n2C(=O)c1ccc(Cl)cc1` [Indomethacin, reference compound], the ED50 stood at 0.25 mg/kg.

Still in this assay, the particulars now being: at the dose level tested.
For `COc1ccc(-c2cc(SC(F)(F)C(F)F)sc2-c2ccc(OC)cc2)cc1` [Example 4, 2,3-bis(4-Methoxyphenyl)-5-(1,1,2,2-tetrafluoroethylthio)thiophene], the “antiinflammatory activity (statistical significance)” value is recorded as “did not exhibit statistically significant antiinflammatory activity”.
